Test systems include SN12C renal; UO-31 renal; NCI-H23 lung; A549 NSCLC; TK-10 renal; 786-0 renal; RXF 393 renal; HOP-92 NSCLC; NCI-H226 lung; UACC-257 melanoma.
Common to all, as to assay: growth of human tumour cells (NCI), 48 h

Each structure is given as a SMILES string. Where “and” joins values, the source holds several entries; their conditions need not be identical. Equal values may be shown once.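 Method: 48-hour compound exposure of cells in 96-well plates, five concentrations, linear interpolation of endpoints. GI50 marks 50% less growth. Definition used: TGI = concentration required for complete inhibition of growth.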

Turning to `Cc1c2cc[n+](C)cc2c(C)c2c1[nH]c1ccc(OCC(F)(F)F)cc12`, the GI50 was 0.123 µM in the experiment with SN12C renal; 36.6 µM and > 100 µM in the experiment with UO-31 renal; 13.5 µM and > 100 µM in the experiment on TK-10 renal; over 100 µM with RXF 393 renal; 0.581 µM in the experiment with NCI-H226 lung; 4.02 µM and 14.8 µM in the experiment with UACC-257 melanoma. Also, the TGI was over 100 µM with UO-31 renal; 5.8 µM and 9.49 µM in the experiment with NCI-H23 lung; over 100 µM with A549 NSCLC; over 100 µM in the experiment on TK-10 renal; over 100 µM in the experiment with 786-0 renal; over 100 µM in the experiment on RXF 393 renal. The TGI was 8.98 µM and > 28.5 µM in the experiment on HOP-92 NSCLC; 1.69 µM and 3.75 µM in the experiment on NCI-H226 lung; 20 µM and > 100 µM in the experiment with UACC-257 melanoma.

Regarding `C=C1C(=O)OC2C[C@@]3(C)CCCC(=C)C3CC12` (stereo partly drawn), the TGI is 16.7 µM in the experiment with SN12C renal; 17.1 µM in the experiment on UO-31 renal; 26.9 µM with NCI-H23 lung; 27.7 µM in the experiment on A549 NSCLC; 23.5 µM in the experiment on TK-10 renal; 10.5 µM in the experiment on RXF 393 renal. The TGI stood at 14.6 µM in the experiment with HOP-92 NSCLC, 26 µM in the experiment on NCI-H226 lung and 22 µM in the experiment with UACC-257 melanoma.

Consider `CC12CC(c3ccccc3O1)C(C(=O)Nc1nccs1)C(=O)N2` (stereo not drawn), for which the TGI in the experiment on UO-31 renal, with NCI-H23 lung, in the experiment on A549 NSCLC, with TK-10 renal, in the experiment on 786-0 renal and in the experiment on RXF 393 renal was over 100 µM each time. Besides, the TGI with HOP-92 NSCLC, in the experiment on NCI-H226 lung and in the experiment with UACC-257 melanoma was over 100 µM throughout.

Regarding `COc1ccc(N=C(C)C(C)=Nc2ccc(OC)cc2)cc1`, the TGI with SN12C renal, with UO-31 renal, in the experiment with NCI-H23 lung, in the experiment with A549 NSCLC, in the experiment with TK-10 renal and in the experiment with 786-0 renal was over 100 µM each time. Besides, the TGI in the experiment with RXF 393 renal, in the experiment with HOP-92 NSCLC, in the experiment on NCI-H226 lung and in the experiment with UACC-257 melanoma was over 100 µM in each case.

Regarding `COc1ccc(NCn2nc(CCCCCCCCc3nn(CNc4ccc(OC)cc4)c(=S)o3)oc2=S)cc1`, the TGI in the experiment on SN12C renal, in the experiment on UO-31 renal, with NCI-H23 lung, in the experiment with A549 NSCLC, in the experiment with TK-10 renal and with 786-0 renal was over 100 µM each time. The TGI in the experiment with RXF 393 renal, in the experiment with HOP-92 NSCLC, with NCI-H226 lung and with UACC-257 melanoma was over 100 µM throughout.

`C[C@@H]([C@H]1CC[C@@]2(C)[C@@H]3CC[C@@H]4C(=CC3=CC[C@]12C)CC[C@H](N(C)C)C4(C)C)N(C)C`: the TGI with SN12C renal, with NCI-H23 lung, in the experiment with TK-10 renal, in the experiment with 786-0 renal, with RXF 393 renal and with HOP-92 NSCLC was over 100 µM throughout. Besides, the TGI in the experiment on NCI-H226 lung and in the experiment on UACC-257 melanoma was over 100 µM each time.

Take `Cc1cc(C)c(S(=O)(=O)N(CCCCCN)OCCCN)c(C)c1`: the TGI in the experiment with SN12C renal was determined as 33.3 µM; in the experiment on UO-31 renal it was 27.1 µM; in the experiment with NCI-H23 lung, 33.4 µM; in the experiment with A549 NSCLC it was 36 µM; with TK-10 renal, 30.8 µM; in the experiment on RXF 393 renal, 24.8 µM. The values for the TGI with HOP-92 NSCLC, with NCI-H226 lung and in the experiment with UACC-257 melanoma were 31 µM, 29.9 µM and 32 µM, respectively.

Regarding `Nc1ccnc2c1ncn2[C@H]1C[C@H](O)[C@@H](CO)O1`, the TGI in the experiment on SN12C renal, with UO-31 renal, with NCI-H23 lung, with A549 NSCLC, with TK-10 renal and in the experiment on 786-0 renal was over 100 µM each time. In addition, the TGI in the experiment on RXF 393 renal, in the experiment with HOP-92 NSCLC, with NCI-H226 lung and with UACC-257 melanoma was over 100 µM each time.

As for `C/C(=N/NC(N)=S)C(CN1CCOCC1)C(C1=C(O)c2ccccc2OC1)c1ccccc1` (stereo not drawn), the TGI in the experiment on SN12C renal, in the experiment on UO-31 renal, with NCI-H23 lung, with A549 NSCLC, in the experiment on TK-10 renal and with 786-0 renal was over 100 µM throughout. The TGI with RXF 393 renal, in the experiment with HOP-92 NSCLC, in the experiment with NCI-H226 lung and with UACC-257 melanoma was over 100 µM each time.

Regarding `COc1ccc(C2C3=C(COC3=O)Oc3cc4c(cc32)OCO4)cc1OC` (stereo not drawn), the TGI in the experiment with SN12C renal, with UO-31 renal, with NCI-H23 lung, with A549 NSCLC, with TK-10 renal and in the experiment with 786-0 renal was over 100 µM throughout. The TGI in the experiment on RXF 393 renal was 5.7 µM; with HOP-92 NSCLC, over 100 µM; with NCI-H226 lung, over 100 µM; in the experiment with UACC-257 melanoma it was over 100 µM.

Take `CCOC(=O)C1=C(N2CCCC2)C(=O)C(C(=O)OCC)C1` (stereo not drawn): the TGI in the experiment with SN12C renal, in the experiment on UO-31 renal, in the experiment with NCI-H23 lung, with A549 NSCLC, in the experiment with TK-10 renal and in the experiment with 786-0 renal was over 100 µM in each case. For the same compound, the TGI in the experiment on RXF 393 renal, in the experiment with HOP-92 NSCLC, in the experiment with NCI-H226 lung and with UACC-257 melanoma was over 100 µM in each case.

For `CCOC(=O)/C=C(/C(=O)OCC)n1cc(C)c(=O)n(Cc2cn(CCCCOC(C)=O)nn2)c1=O`, the TGI was 91.7 µM in the experiment with SN12C renal; 28.3 µM with UO-31 renal; 31.9 µM in the experiment on NCI-H23 lung; 56.1 µM in the experiment with A549 NSCLC; 16.7 µM with TK-10 renal; over 100 µM in the experiment with 786-0 renal. Besides, the TGI was over 100 µM in the experiment on RXF 393 renal, 3.11 µM in the experiment with HOP-92 NSCLC, 37.1 µM with NCI-H226 lung and 36.8 µM in the experiment on UACC-257 melanoma.

Consider `CCN(CC)CC[n+]1ccc2c(C)c3[nH]c4ccccc4c3c(C)c2c1`, for which the GI50 in the experiment on SN12C renal was 0.195 µM; in the experiment with UO-31 renal it was 22.6 µM and 10.5 µM and 4.12 µM; with NCI-H23 lung, 0.394 µM; with A549 NSCLC, 0.466 µM and 0.498 µM and 0.951 µM; with RXF 393 renal, 1.83 µM; in the experiment on HOP-92 NSCLC, 0.342 µM and 0.833 µM and 0.242 µM. Further, the GI50 with NCI-H226 lung was 0.346 µM and 0.529 µM and 0.0944 µM; in the experiment on UACC-257 melanoma, 0.633 µM. The TGI with SN12C renal was 1.9 µM and 0.925 µM and 2.68 µM; in the experiment on UO-31 renal it was 78.6 µM and 44 µM and 16.8 µM; in the experiment on NCI-H23 lung it was 2.22 µM and 2.24 µM and 4.13 µM; with A549 NSCLC it was 5.22 µM and 5.45 µM and 8.14 µM; in the experiment on TK-10 renal it was 25.3 µM; with 786-0 renal, 5.96 µM. The TGI in the experiment on RXF 393 renal is 8.83 µM and 8.41 µM and 7.26 µM; in the experiment with HOP-92 NSCLC, 1.94 µM and 4.34 µM and 2.71 µM; in the experiment with NCI-H226 lung it was 1.89 µM and 2.89 µM and 0.693 µM; in the experiment on UACC-257 melanoma, 2.07 µM and 2.59 µM and 1.99 µM.

The values are drawn from PubChem BioAssay (NCI).
